# Assay results published in patent US8686113B2 (priority 2009, dated 2014).
# Read-outs that look alike come from different tables or passages of the source. Non-standard residues stand in square brackets, D forms with d. Residues, ends and D or L forms follow the SMILES beside them. *: point of attachment. Guan = N-terminal guanidation, N=C(N)*; Hyp = O=C(O)[C@@H]1C[C@@H](O)CN1; dOrn = NCCC[C@@H](N)C(=O)O; code O = not defined here; Orn = NCCC[C@H](N)C(=O)O; For = O=C*
# Columns and labels:
# E. coli BL21 A1 = type: cell-based, Escherichia coli
# Protocol: (§1) The minimum inhibitory concentrations (MIC) of the antimicrobial peptides and peptide derivatives were determined in microdilution assays. These used a continuous peptide dilution in sterile flat-bottomed 96-well microtiter plates (polystyrene, Greiner Bio-One GmbH, Frickenhausen, Germany) and a total volume of 100 μL per well. The aqueous peptide or peptidomimetic solutions were diluted with 1% TSB water, to obtain a final concentration of 256 μg/mL. 50 μL of the peptide or peptidomimetic solution was pipetted into the first well of each series and stirred. From this solution, 50 μL was transferred to the second well, stirred and again 50 μL was transferred to the next well, and so on. A double dilution series is obtained, beginning at 256 μg/mL in the first well to 125 ng/mL in the twelfth well. The bacteria, e.g. E. coli BL21 A1, were cultured overnight at 37° C. in nutrient broth (NB, Carl Roth GmbH+Co. KG, Karlsruhe, Germany). 50 μL of a 5×10^6 bacteria/mL suspension in 1% TSB was added to each well of the microtiter plate and thus a final concentration of the peptides or peptidomimetics from 128 μg/mL (well 1) to 62.5 ng/mL (well 12) was established in each series. The plates were incubated at 37° C. for 20 h and then the absorption was measured at 595 nm with a TECAN microtiter plate spectrophotometer (Tecan Trading AG, Mannedorf, Switzerland). The MIC values of all peptides and peptidomimetics were determined in triplicate. Sterile water was used as negative control. The MIC value represents the lowest peptide concentration at which no bacterial growth is observed after an incubation time of 20 h at 37° C.
# (§2) The MIC values of the peptides and peptide derivatives against Escherichia coli BL21 A1 and Micrococcus luteus ATCC 10240 are given in Table 7.
# M. luteus 10240 = experiment: Growth inhibition assay (microdilution MIC); type: cell-based, Micrococcus luteus
# Protocol: as §1, §2
"MIC E. coli BL21 A1 (E. coli BL21 A1; BL21, 20 h) [µg/mL]","MIC M. luteus 10240 (M. luteus 10240; 10240, 20 h) [µg/mL]",Compound,other results
–,–,84 (Guan-VDKPPYLPRPRPPRRIYNR-NH2) [compound 84],"MIC E. coli BL21 A1 (E. coli BL21 A1; 1% TSB, 20 h at 37° C.): 32 µg/mL"
–,–,85 (Guan-VDKPPYLPRPRPPR[code O]IYN[code O]-NH2; reading uncertain; also: printed as Guan-VDKPPYLPRPRPPROIYNO-NH2) [compound 85],"MIC E. coli BL21 A1 (E. coli BL21 A1; 1% TSB, 20 h at 37° C.): 64 µg/mL"
–,–,95 ({RQIKIWFQNRRMKWKKC-Ac}-GNNRPVYIPQPRPPHPRL-OH; not fully specified (bridges); printed as RQIKIWFQNRRMKWKKC-(CH2CO-GNNRPVYIPQPRPPHPRL-OH)-; also: N-terminal CH2CO attached to Cys side chain of RQIKIWFQNRRMKWKKC-OH) [compound 95],"MIC M. luteus 10240 (M. luteus 10240; 1% TSB, 20 h at 37° C.): 8 µg/mL; MIC E. coli BL21 A1 (E. coli BL21 A1; 1% TSB, 20 h at 37° C.): 8 µg/mL"
4,–,"CC[C@H](C)[C@H](NC(=O)[C@H](CCCN)NC(=O)[C@H](CCCNC(=N)N)NC(=O)[C@@H]1CCCN1C(=O)[C@@H]1CCCN1C(=O)[C@H](CCCNC(=N)N)NC(=O)[C@@H]1CCCN1C(=O)[C@H](CCCNC(=N)N)NC(=O)[C@@H]1CCCN1C(=O)[C@H](CC(C)C)NC(=O)[C@H](Cc1ccc(O)cc1)NC(=O)[C@@H]1CCCN1C(=O)[C@@H]1CCCN1C(=O)[C@H](CCCCN)NC(=O)[C@H](CC(=O)O)NC(=O)[C@@H](N)C(C)C)C(=O)N[C@@H](Cc1ccc(O)cc1)C(=O)N[C@@H](CCC(N)=O)C(=O)N[C@@H](CCCN)C(N)=O [SEQ ID NO. 74, VDKPPYLPRPRPPROIYQO-NH2] (H-VDKPPYLPRPRPPR[Orn]IYQ[Orn]-NH2)",–
128,32,CC[C@H](C)[C@H](NC(=O)[C@H](CCCNC(=N)N)NC(=O)[C@H](CCCNC(=N)N)NC(=O)[C@@H]1CCCN1C(=O)[C@@H]1CCCN1C(=O)[C@H](CCCNC(=N)N)NC(=O)[C@@H]1CCCN1C(=O)[C@H](CCCNC(=N)N)NC(=O)[C@@H]1CCCN1C(=O)[C@H](CC(C)C)NC(=O)[C@H](Cc1ccc(O)cc1)NC(=O)[C@@H]1CCCN1C(=O)[C@@H]1CCCN1C(=O)[C@H](CCCCN)NC(=O)[C@H](CC(=O)O)NC(=O)[C@@H](NC=O)C(C)C)C(=O)N[C@@H](Cc1ccc(O)cc1)C(=O)N[C@@H](CC(N)=O)C(=O)N[C@@H](CCCNC(=N)N)C(=O)O [SEQ ID NO. 81] (For-VDKPPYLPRPRPPRRIYNR-OH),–
–,64,"CC[C@@H](C)[C@@H](NC(=O)[C@@H](CCCNC(=N)N)NC(=O)[C@@H](CCCNC(=N)N)NC(=O)[C@H]1CCCN1C(=O)[C@H]1CCCN1C(=O)[C@@H](CCCNC(=N)N)NC(=O)[C@H]1CCCN1C(=O)[C@@H](CCCNC(=N)N)NC(=O)[C@H]1CCCN1C(=O)[C@@H](CC(C)C)NC(=O)[C@@H](Cc1ccc(O)cc1)NC(=O)[C@H]1CCCN1C(=O)[C@H]1CCCN1C(=O)[C@@H](CCCCN)NC(=O)[C@@H](CC(=O)O)NC(=O)[C@H](N)C(C)C)C(=O)N[C@H](Cc1ccc(O)cc1)C(=O)N[C@H](CC(N)=O)C(=O)N[C@H](CCCNC(=N)N)C(N)=O [SEQ ID NO. 115, vdkppylprprpprriynr-NH2] (H-[dV][dD][dK][dP][dP][dY][dL][dP][dR][dP][dR][dP][dP][dR][dR][dI][dY][dN][dR]-NH2)",–
–,128,"CC[C@@H](C)[C@@H](NC(=O)[C@@H](CCCN)NC(=O)[C@@H](CCCNC(=N)N)NC(=O)[C@H]1CCCN1C(=O)[C@H]1CCCN1C(=O)[C@@H](CCCNC(=N)N)NC(=O)[C@H]1CCCN1C(=O)[C@@H](CCCNC(=N)N)NC(=O)[C@H]1CCCN1C(=O)[C@@H](CC(C)C)NC(=O)[C@@H](Cc1ccc(O)cc1)NC(=O)[C@H]1CCCN1C(=O)[C@H]1CCCN1C(=O)[C@@H](CCCCN)NC(=O)[C@@H](CC(=O)O)NC(=O)[C@H](N)C(C)C)C(=O)N[C@H](Cc1ccc(O)cc1)C(=O)N[C@H](CC(N)=O)C(=O)N[C@H](CCCN)C(N)=O [SEQ ID NO. 116, vdkppylprprpproiyno-NH2] (H-[dV][dD][dK][dP][dP][dY][dL][dP][dR][dP][dR][dP][dP][dR][dOrn][dI][dY][dN][dOrn]-NH2)",–
64 to 256,–,"CC[C@@H](C)[C@@H](NC(=O)[C@@H](Cc1ccc(O)cc1)NC(=O)[C@@H](CC(N)=O)NC(=O)[C@H](N)CCCNC(=N)N)C(=O)N[C@H](CCCNC(=N)N)C(=O)N[C@H](CCCNC(=N)N)C(=O)N1CCC[C@@H]1C(=O)N1CCC[C@@H]1C(=O)N[C@H](CCCNC(=N)N)C(=O)N1CCC[C@@H]1C(=O)N[C@H](CCCNC(=N)N)C(=O)N1CCC[C@@H]1C(=O)N[C@H](CC(C)C)C(=O)N[C@H](Cc1ccc(O)cc1)C(=O)N1CCC[C@@H]1C(=O)N1CCC[C@@H]1C(=O)N[C@H](CCCCN)C(=O)N[C@H](CC(=O)O)C(=O)N[C@@H](C(N)=O)C(C)C [SEQ ID NO. 117, rnyirrpprprplyppkdv-NH2] (H-[dR][dN][dY][dI][dR][dR][dP][dP][dR][dP][dR][dP][dL][dY][dP][dP][dK][dD][dV]-NH2)",–
64 to 256,–,"CC[C@@H](C)[C@@H](NC(=O)[C@@H](Cc1ccc(O)cc1)NC(=O)[C@@H](CC(N)=O)NC(=O)[C@H](N)CCCN)C(=O)N[C@H](CCCN)C(=O)N[C@H](CCCNC(=N)N)C(=O)N1CCC[C@@H]1C(=O)N1CCC[C@@H]1C(=O)N[C@H](CCCNC(=N)N)C(=O)N1CCC[C@@H]1C(=O)N[C@H](CCCNC(=N)N)C(=O)N1CCC[C@@H]1C(=O)N[C@H](CC(C)C)C(=O)N[C@H](Cc1ccc(O)cc1)C(=O)N1CCC[C@@H]1C(=O)N1CCC[C@@H]1C(=O)N[C@H](CCCCN)C(=O)N[C@H](CC(=O)O)C(=O)N[C@@H](C(N)=O)C(C)C [SEQ ID NO. 118, onyiorpprprplyppkdv-NH2] (H-[dOrn][dN][dY][dI][dOrn][dR][dP][dP][dR][dP][dR][dP][dL][dY][dP][dP][dK][dD][dV]-NH2)",–
128,32,CC[C@H](C)[C@H](NC(=O)[C@H](CCCNC(=N)N)NC(=O)[C@H](CCCNC(=N)N)NC(=O)[C@@H]1CCCN1C(=O)[C@@H]1CCCN1C(=O)[C@@H]1C[C@@H](O)CN1C(=O)[C@@H]1CCCN1C(=O)[C@H](CCCNC(=N)N)NC(=O)[C@@H]1CCCN1C(=O)[C@H](CC(C)C)NC(=O)[C@H](Cc1ccc(O)cc1)NC(=O)[C@@H]1CCCN1C(=O)[C@@H]1CCCN1C(=O)[C@H](CCCCN)NC(=O)[C@H](CC(=O)O)NC(=O)[C@@H](N)C(C)C)C(=O)N[C@@H](Cc1ccc(O)cc1)C(=O)N[C@@H](CC(N)=O)C(=O)N[C@@H](CCCNC(=N)N)C(=O)O [compound 3] (H-VDKPPYLPRP[Hyp]PPRRIYNR-OH),–
8,8,CC[C@H](C)[C@H](NC(=O)[C@H](CCCNC(=N)N)NC(=O)[C@H](CCCNC(=N)N)NC(=O)[C@@H]1CCCN1C(=O)[C@@H]1CCCN1C(=O)[C@H](CCCNC(=N)N)NC(=O)[C@@H]1CCCN1C(=O)[C@H](CCCNC(=N)N)NC(=O)[C@@H]1CCCN1C(=O)[C@H](CC(C)C)NC(=O)[C@H](Cc1ccc(O)cc1)NC(=O)[C@@H]1CCCN1C(=O)[C@@H]1CCCN1C(=O)[C@H](CCCCN)NC(=O)[C@H](CC(=O)O)NC(=O)[C@@H](N)C(C)C)C(=O)N[C@@H](Cc1ccc(O)cc1)C(=O)N[C@@H](CC(N)=O)C(=O)N[C@@H](CCCN)C(=O)N[C@@H](CC(N)=O)C(N)=O [compound 26] (H-VDKPPYLPRPRPPRRIYN[Orn]N-NH2),–
–,8,CC[C@H](C)[C@H](NC(=O)[C@H](CCCN)NC(=O)[C@H](CCCNC(=N)N)NC(=O)[C@@H]1CCCN1C(=O)[C@@H]1CCCN1C(=O)[C@H](CCCNC(=N)N)NC(=O)[C@@H]1CCCN1C(=O)[C@H](CCCNC(=N)N)NC(=O)[C@@H]1CCCN1C(=O)[C@H](CC(C)C)NC(=O)[C@H](Cc1ccc(O)cc1)NC(=O)[C@@H]1CCCN1C(=O)[C@@H]1CCCN1C(=O)[C@H](CCCCN)NC(=O)[C@H](CC(=O)O)NC(=O)[C@@H](N)C(C)C)C(=O)N[C@@H](Cc1ccc(O)cc1)C(=O)N[C@@H](CCC(N)=O)C(=O)N[C@@H](CCCN)C(N)=O [compound 74] (H-VDKPPYLPRPRPPR[Orn]IYQ[Orn]-NH2),–
4,–,CC[C@H](C)[C@H](NC(=O)[C@@H](CCCNC(=N)N)NC(=O)[C@H](CCCNC(=N)N)NC(=O)[C@@H]1CCCN1C(=O)[C@@H]1CCCN1C(=O)[C@H](CCCNC(=N)N)NC(=O)[C@@H]1CCCN1C(=O)[C@H](CCCNC(=N)N)NC(=O)[C@@H]1CCCN1C(=O)[C@H](CC(C)C)NC(=O)[C@H](Cc1ccc(O)cc1)NC(=O)[C@@H]1CCCN1C(=O)[C@@H]1CCCN1C(=O)[C@H](CCCCN)NC(=O)[C@H](CC(=O)O)NC(=O)[C@@H](N)C(C)C)C(=O)N[C@@H](Cc1ccc(O)cc1)C(=O)N[C@@H](CC(N)=O)C(=O)N[C@H](CCCNC(=N)N)C(N)=O [compound 112] (H-VDKPPYLPRPRPPR[dR]IYN[dR]-NH2),–
–,–,"H-GNNRPVYIPQPRPPHPRL-OH [SEQ ID NO. 87, reference compound]","MIC M. luteus 10240 (M. luteus 10240; 1% TSB, 20 h at 37° C.): 64 µg/mL"
128,–,H-VDKPPYLPRPPPPRRIYN-NH2 [compound 1],–
16,–,H-VDKPPYLPRPRPPRRIYNH-NH2 [SEQ ID NO. 53],times lower activity / higher MIC value than oncocin against E. coli (E. coli BL21 A1): 4 times
–,16,H-VDKPPYLPRPRPPRRIYNH-NH2 [compound 53],–

Compound,"MIC E. coli BL21 A1 (E. coli BL21 A1; BL21, 20 h) [µg/mL]","MIC M. luteus 10240 (M. luteus 10240; 10240, 20 h) [µg/mL]",other results
H-VDKPPYLPRPRPPRRIYN-OH [compound 28],–,128,–
